One data set has as its system Anas platyrhynchos. Conditions: short-term; oral; feed; mortality.
In a further data set the test system is Apis mellifera. Conditions: acute; duration: 48 hours; oral; unspecified; mortality.
The test system of the next data set is Cyprinus carpio. Conditions: acute; duration: 96 hours; mortality.
Another data set has as its system Daphnia magna. Conditions: chronic/long-term; duration: 21 days; reproduction.
Another data set deals with Folsomia candida. Conditions: chronic/long-term; duration: 28 days.
The next data set deals with Mus musculus. To be noted: oral.
The subject of a further data set is Oncorhynchus mykiss. To be noted: chronic/long-term; duration: 28 days; growth.
The test system of the next data set is Typhlodromus pyri. Put plainly: LR50; higher = less toxic. Conditions: acute; duration: 7 days; mortality.

By NOAEL is commonly meant the highest tested level that showed no adverse finding.

Values after ≈ are worked out from the molar mass of the structure shown.

With `CC(C)=NOCCOC(=O)[C@@H](C)Oc1ccc(Oc2cnc3cc(Cl)ccc3n2)cc1` [Propaquizafop], the LC50 with Anas platyrhynchos was above 827 mg/kg-day; in the data set on Cyprinus carpio, 0.19 mg/L (≈ 0.428 µM); in the data set on Tagia sp. (acute, mortality) it was above 1000 mg/kg. In addition, the LD50 was above 20 µg/piece in the data set with Apis mellifera; above 2000 mg/kg with Colinus virginianus (acute, oral, mortality); 3010 mg/kg in the data set with Mus musculus (acute, mortality). Further, the NOEC is at least 20.2 mg/kg-day in the data set with Colinus virginianus (reproduction developmental); 0.44 mg/L with Daphnia magna; 5.4 mg/kg in the data set with Folsomia candida; 0.019 mg/L in the data set with Oncorhynchus mykiss; 3.9 mg/kg in the data set with Tagia sp. (chronic/long-term, duration: 56 days). The NOAEL was 1.5 mg/kg-day with Mus musculus (chronic, duration: 18 months, clinical chemistry); 15 mg/kg-day in the data set on Rattus norvegicus (reproduction developmental, reproduction); 6.25 mg/kg-day in the data set with Rattus norvegicus (subchronic, duration: 90 days, oral). In the data set with Typhlodromus pyri, the LR50 was above 1.4 g/ha.

The values are drawn from EPA's ToxValDB 9.5 (doi:10.2903/j.efsa.2009.204r).
